Measurements reported in paper PMC9518248, “Inhibition of Toxoplasma gondii by 1,2,4-triazole-based compounds: marked improvement in selectivity relative to the standard therapy pyrimethamine and sulfadiazine” (Journal of Enzyme Inhibition and Medicinal Chemistry, 2022).
Converted amounts (≈) assume the structure as drawn. “Also recorded” adds a separate entry of the source.

Assays:
[1] = tested on: human glioblastoma T98G cells; test: Cytotoxicity against glioblastoma cells (MTT); type: cell-based; conditions: 24 h
Description: (§1) Cytotoxic effect of 20b was evaluated using glioblastoma (T98G) cells obtained from the American Type Culture Collection (Manassas, VA). Cells were cultured in Dulbecco’s Modified Eagle’s Medium (DMEM-high glucose) (Sigma Aldrich, St. Louis, MO), supplemented with 10% heat inactivated FBS, penicillin (100 U/mL), and streptomycin (100 μg/mL) (Sigma Aldrich, St. Louis, MO). Cells were maintained in a humidified atmosphere of 5% CO2 and 95% air at 37 °C. Stock solutions of the investigated compounds (20b and temozolomide) were prepared by dissolving solid substances in a sterile DMSO. T98G glioblastoma cells were seeded into 96-well sterile plates at a density of 1 × 10^5cells/mL. After 24 h of incubation, the medium was removed from each well and then cells were incubated for the next 24 h with different concentrations of the investigated compounds (10, 25, 35, 50, and 100 µg/mL) in the medium containing 2% FBS. Viability of T98G cells was evaluated using MTT assay, whose principle is based on the conversion of 3–(4,5-dimethylthiazol-2-yl)-2,5-diphenyltetrazolium bromide (MTT) into dark-blue formazan crystals. In brief, after 24 h incubation of cells with varying concentrations of the tested compounds, culture medium was removed from the plate. Cells were washed with PBS, and then 100 µL of medium containing 10% MTT solution (5 mg/mL) was added to each well. After 3 h incubation, 100 µL (per well) of 10% SDS buffer solution was added to solubilise formazan crystals. After overnight incubation the absorbance was measured at 570 nm using a microplate reader (Epoch, BioTek Instruments, Winooski, VT). Experiments were repeated three times, and the measurements in each experiment were run in quadruplicate. Viability of the investigated cells was expressed as % of the viability of the untreated cells.

[2] = Cytotoxicity against glioblastoma cells (MTT); type: cell-based, human; conditions: human, T98G glioblastoma cells, MTT, read-out: Viability of T98G cells (% of control ± SD)
Description: as §1

[3] = tested on: Tyrosinase (TYR) from mushrooms; test: Inhibition of tyrosinase activity assay; type: biochemical; conditions: for Diphenolase activity: substrate DOPA; for Monophenolase activity: substrate L-tyrosine
Description: Tyrosinase (TYR) from mushrooms ([…], Sigma) was used in our study. We analysed inhibition of 20 b on both monophenolase and diphenolase activity of TYR. All compound dilutions, both substrate L-tyrosine (Tyr) and levodopa (DOPA), and TYR were prepared in 50 mM phosphate buffer (pH 6.5). […] Firstly, the substrate and compound were added to a 96-well flat-bottom plate (Nunc MaxiSorp^TM, Roskilde, Denmark), next TYR was added and the initial absorbance (A0) was measured spectrophotometrically at 492 nm. Then, the plate was incubated at 25 °C for 30 min. After incubation, the amount of dopachrome produced in the reaction mixture was determined spectrophotometrically at 492 nm (A30) using the multi-mode microplate reader SpectraMax® i3. As 100% TYR activity samples without addition of compound, were used. The average results from three experiments are shown.

Human Hs27 cells = test: Genotoxic activity, single cell gel electrophoresis (comet assay); type: cell-based; conditions: 24 h, concentration equal to IC50Tg
Description: All the procedures performed were in line with the manufacturer’s protocol. Human Hs27 cells, previously exposed for 24 h to the compound, were combined with liquefied low melting Agarose at 37 °C and transferred onto the OxiSelect comet slides. After storing for 15 min at 4 °C, the slides were immersed in a pre-chilled Lysis Buffer (for 45 min at 4 °C) and Alkaline Solution (for 30 min at 4 °C). Afterwards, the Alkaline Solution was replaced with pre-chilled TBE electrophoresis solution. After immersing for 5 min, the slides were put into the horizontal electrophoresis chamber and covered with TBE electrophoresis buffer. The electrophoresis was run for 15 min at 1 volt/cm. Finally, DNA was stained with Vista Green DNA Dye for 15 min at room temperature and observed under fluorescence microscope (Olympus BX63, Tokyo, Japan). The images of cells were captured using XM10 digital camera (Olympus). The DNA damage was measured quantitatively using OpenComet software. At least 50 randomly selected images were used in each analysis.

[4] = tested on: T. gondii tachyzoites of the RH-GFP strain; test: Toxoplasma tachyzoites invasion assay (Assay A); conditions: 3 h pre-treatment at 35.35, 70.70 and 176.75 μg/mL, then 24 h treatment-free
Description: The Hs27 cells were cultured on Lab-Tek™ 4-well Chamber Slides (Nunc) (5 × 10^4 cells/500 μL per well).
Then, the cells were washed to remove extracellular parasites and parasite culture medium (without any compounds) was added for 24 h.
In both assays as the control, Hs27 cells were infected, but not treated. After subsequent 24 h of incubation (Assay A and B), the slides were washed with sterile PBS, fixed with formaldehyde solution (252549, Sigma-Aldrich), 3.7% in PBS for 20 min, and stained with DAPI for 10 min (1 mg/mL, ThermoFisher Scientific, Waltham, MA). Microscopic analysis of 100 cells in turn, comprised of counting the infected cell ratio and tachyzoites per each parasitophorous vacuoles of infected cell, was performed using a fluorescent microscope (Axio Scope.A1, Carl Zeiss, Germany) at a magnification ×1000. For image processing ZEISS ZEN Microscope Software version 3.1 (Oberkochen, Germany) was used. Three independent experiments on triplicate chamber slides using the same conditions for both assays were performed.

PAMPA-BBB assay = type: in vitro ADME
Description: BBB permeability of 20b was investigated using a parallel artificial membrane permeability assay (PAMPA) method. The PAMPA system, consisted of a 96-well microfilter plate, was divided into two chambers: a donor at the bottom and an acceptor at the top, separated by a 120-μm-thick microfilter disc coated with BBB lipid solution (Pion, Inc., Billerica, MA). The solutions of 20b were prepared in dimethylsulphoxide (DMSO) at 4 mg/mL concentration and then diluted with Prisma buffer (pH = 7.4) to obtain the donor drug solution with the final nominal concentration of 20 μg/mL. Then, 180 μL of the donor solution were added to the donor wells. Subsequently, each filter membrane of the top plate was coated with 5 μL BBB-1 lipid solution (Pion Inc.) and the acceptor well was filled with 200 μL of Brain Sink Buffer (BSB). The acceptor plate and the donor plate were sandwiched together and incubated at 37 °C for 180 min.
The permeability coefficient value (Pe) was calculated by using the following equation: Pe=−ln(1−CA/Cequilibrium)/S×(1/VD+1/VA)×t where VD – donor volume, VA – acceptor volume, Cequilibrium – equilibrium concentration, Cequilibrium=CD×VD+CA×VA/VD+VA, CD – donor concentration, CA – acceptor concentration, S – membrane area, and t – incubation time (in seconds).

[5] = tested on: T. gondii tachyzoites of the RH-GFP strain; test: Intracellular Toxoplasma tachyzoites proliferation assay (Assay B); type: cell-based, Toxoplasma gondii; conditions: 3 h infection, then 24 h treatment at 35.35, 70.70, 176.75 μg/mL; dose-dependent
T. gondii RH-GFP = test: Antiparasitic assay: T. gondii RH-GFP proliferation in Hs27 cells; type: cell-based, Toxoplasma gondii
[6] = tested on: Human red blood cells (RBCs); test: Haemolytic activity determination; type: cell-based; conditions: at the concentration equal to its IC50Tg
Description: (§2) Human red blood cells (RBCs) concentrate was obtained from the Regional Blood Donation and Transfusion Centre (Lublin, Poland). RBCs concentrate (5 mL) was washed three times with sterile PBS and centrifuged at 500 g for 3 min. […] The amount of free haemoglobin in supernatants was measured spectrophotometrically at 405 nm. Negative and positive controls were performed by incubating RBCs with sterile PBS and 0.1% Triton-X, respectively. Each experiment was run in triplicate.

[7] = Haemolytic activity determination; type: cell-based; conditions: 2% suspension of human red blood cells, human RBCs, 37 °C, 30 min, read-out: Haemolysis (%)
Description: as §2

[8] = 1 µM, % of activity without compound

COc1ccc(-n2c(-c3[nH]cnc3C)n[nH]c2=S)cc1 [20b]
reduction of T98G cell viability ([1]; 10 µg/mL): ~6% | reduction of T98G cell viability ([1]; 100 µg/mL): ~24% | viability at 24 h, 10 µg/mL ([2]; 10 µg/mL): 94.2 ± 2.06% | viability at 24 h, 25 µg/mL ([2]; 25 µg/mL): 92 ± 3.27% | viability at 24 h, 35 µg/mL ([2]; 35 µg/mL): 87.15 ± 0.55% | viability at 24 h, 50 µg/mL ([2]; 50 µg/mL): 82.1 ± 1.73% | viability at 24 h, 100 µg/mL ([2]; 100 µg/mL): 76.26 ± 0.74% | Diphenolase activity [3, 8]: 94.6 ± 3.3% | Monophenolase activity [3, 8]: 101.76 ± 4.69% | Diphenolase activity ([3]; 10 µM): 99.6 ± 0.7% | Monophenolase activity ([3]; 10 µM): 99.01 ± 1.79% | Diphenolase activity ([3]; 25 µM): 92.7 ± 1.7% | Monophenolase activity ([3]; 25 µM): 92.97 ± 2.54% | Diphenolase activity ([3]; 50 µM): 91.2 ± 1.2% | Monophenolase activity ([3]; 50 µM): 90.66 ± 4.29% | Diphenolase activity ([3]; 100 µM): 75.3 ± 7.8% | Monophenolase activity ([3]; 100 µM): 70.81 ± 2.18% | Diphenolase activity ([3]; 200 µM): 52.7 ± 6.8% | Monophenolase activity ([3]; 200 µM): 46.79 ± 4.31% | Diphenolase activity ([3]; 400 µM): 25.7 ± 12.8% | Monophenolase activity ([3]; 400 µM): 23.09 ± 8.35% | inhibitory effect on tyrosinase activity ([3]; at concentrations below 50 µM): < 10% | % DNA in comet tail (Human Hs27 cells): 3.38 ± 0.45% | genotoxic effect (DNA damage) (Human Hs27 cells): no induction of DNA damage; also recorded: no genotoxic effect | parasite invasion: percentage of infected cells [4]: did not cause significant reductions in percentage of infected cells | BBB permeation classification (PAMPA-BBB assay; CNS+ if Pe > 5.19, CNS− if Pe < 2.07 (× 10^−6 cm·s^−1)): centrally active | Papp at 180 min, 20 μg/mL (PAMPA-BBB assay; pH 7.4, 37 °C, 180 min, read-out: permeability coefficient Pe): 34.9 ± 2.73 ×10⁻⁶ cm/s | intracellular proliferation: size of PV and number of tachyzoites per PV [5]: significant reduction in both size of the PV and number of intra vacuolar tachyzoites | selectivity (SI) relative to PYR (T. gondii RH-GFP; SI of compound vs SI of PYR): 11 fold | selectivity (SI) relative to SDZ (T. gondii RH-GFP; SI of compound vs SI of SDZ): 160 fold | selectivity (SI) relative to TRI (T. gondii RH-GFP; SI of compound vs SI of TRI): 4 fold | IC50 (T. gondii RH-GFP; Toxoplasma gondii, T. gondii RH-GFP in Hs27 cells, 96 h, values above highest tested concentration extrapolated, read-out: IC50Tg): 35.4 µg/mL (≈ 123 µM) | SI (T. gondii RH-GFP; selectivity index, CC30 (L929)/IC50Tg): 70.72 | haemolytic activity [6]: no specific haemolytic activity; also recorded: no specific haemolytic changes | hemolysis at 30 min, 5 µg/mL ([7]; 5 µg/mL): 0.038 ± 0.007% | hemolysis at 30 min, 10 µg/mL ([7]; 10 µg/mL): 0.104 ± 0.042% | hemolysis at 30 min, 35 µg/mL ([7]; 35 µg/mL): 0.183 ± 0.086%
